# Data published in patent publication US9156906B2, “Glycopeptides and methods of making and using them” (THE REGENTS OF THE UNIVERSITY OF CALIFORNIA, priority 2008, dated 2015).
# Where a SMILES comes first, the peptide text is derived from it. Where no end group is shown, it is not given here. The star is where a group is joined. X1 = CC(=O)N[C@@H]1[C@@H](O[C@@H]2O[C@H](CO)[C@H](O)[C@H](O)[C@H]2O)[C@@H](O)[C@@H](CO)O[C@@H]1*; GalNAc = N-acetylgalactosamine (GalNAc, 2-acetamido-2-deoxy-D-galactopyranose); αGalNAc = CC(=O)N[C@@H]1[C@@H](O)[C@@H](O)[C@@H](CO)O[C@@H]1*
# Key:
# [1] = test system: naïve CD8+ T cells of healthy A2 donors; assay: In vitro priming of naive cytotoxic T cells from PBMC of normal A2+ donors, 51Cr release on T2 cells; type: cell-based, human; settings: for number of specific CTL lines out of the 12, Donor 1 / number of specific CTL lines out of the 12, Donor 2 / number of specific CTL lines out of the 12, Donor 3 / number of specific CTL lines out of the 12, Donor 4 / number of specific CTL lines out of the 12, Donor 5 / number of specific CTL lines out of the 12, Donor 6 / number of specific CTL lines out of the 12, Donor 7: net specific lysis ≧20%, day 10, T2 targets 3:1 E/T; for Total number of specific CTL lines: sum over 7 donors;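 on all read-outs here: CTL lines primed by co-culturing PBMC with autologous antigen-pulsed mature dendritic cells, 12 lines per antigen, lysis net of unpulsed T2 cell background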
# Experimental: Seven A2+ healthy individuals, never exposed to HBV or HIV, between ages 40 and 57, were included in the study. Autologous, antigen-pulsed, mature dendritic cells (DC) were used as antigen presenting cells (APCs) for the in vitro priming. Autologous DC were cultured with granulocyte/macrophage colony stimulating factor (GM-CSF) (kindly provided by Kirin, Japan) and interleukin (IL) 4 (Peprotech, Rocky Hill, N.J.).
# DC were previously pulsed for 2 hours with glycopeptides(s) or peptide(s). Each well defined an individual CTL line.
# By using the culture conditions and IL2 regimen optimized over several years in our laboratory, the large majority of the PBMC in culture are T cells at day 10. CD8+ T cells represent the majority.
# T cell cultures were tested for specificity at day 10 in a ^51Cr release assay. T2 cells (A2) were used as targets at 3:1 E/T ratio. T cell lines primed in vitro with glycopeptides were tested for the ability to recognize T2 cells pulsed with the glycopeptides, or the peptide backbones, or to untreated T2 cells (background control). Peptide-primed T cell lines were also tested for their ability to respond to peptides and cross-react with the corresponding GalNAc-O-S modified sequence.
# CTL lines showing a net specific lysis ≧20% were considered specific. Carbohydrate recognition was defined as a specific response to the glycopeptides, after subtracting the background and the specific response to the corresponding peptide backbone.
# [2] = test system: β-Gal-[1->3]-α-GalNAc-O-specific T cell clones; assay: 51Cr release cytotoxicity assay with TF-specific CTL clones on antigen-pulsed EL-4 targets (fine specificity, cross-reactivity); type: cell-based, mouse; settings: clones B1, C3, D4, 5:1 E/T
# Experimental: CTL clones were generated in C57BL/6 mice (H-2^b) immunized with a K^b-restricted designer alanine-rich glycopeptide sequence that contained TF, sequence: • AIIA(β-Gal-[1->3]-α-GalNAc-O-serine)FAAL
# TF-specific CTL clones were tested for the capacity to cross-react to a glycopeptide with a completely unrelated sequence but carrying the sugar at the same position (5 within a 9mer). For this analysis, we designed a modified Sendai virus immunodominant epitope NP 324-332 (5N->5S-TF), sequence: • FAPG (β-Gal-[1->3]-α-GalNAc-O-S)YPAL This epitope is an ideal proof concept because when bonded to K^b class I MHC molecules it exposes position 5 as a major TcR contact.
# To define the role of the glycosylated amino acid linker for sugar recognition by T cells, the same T cell clones were also tested for cross-reactivity to three alanine-rich glycopeptides with identical sequences as the immunogen: AIIA(β-Gal-[1->3]-α-GalNAc-O-serine)FAAL, but where TF was linked to different amino acid residues.
# T cells were studied with a classic ^51Cr release cytotoxicity assay at a 5:1 effector/target (E/T) ratio. The EL-4 thymoma cell line (H-2)^b, class II MHC negative, was used as the target in these experiments. The cytolytic response to EL-4 cells in the absence of glycopeptides (background) was also assayed, and subtracted, to quantify the net specific lysis. […]
# [3] = test system: C57BL/6 mice; assay: Immunization of wild type C57BL/6 mice, generation of cytotoxic T cells; type: in vivo, mouse; settings: wild type C57BL/6 mice (H-2^b)
# Experimental: These studies were performed in vivo by injecting Tn-containing glycopeptides in: 1) wild type mice (C57BL/6, H-2^b); and 2) MUC1/MT double transgenic mice (H-2^b) that develop spontaneous tumors expressing the Tn carbohydrate molecule within 12 weeks of age.
# [4] = test system: A2 class I MHC molecules; assay: A2 binding affinity of glycopeptides; parameters: species or system human
# [5] = clear solution with no visible particulates
# Text: Solubility is defined as a clear solution with no visible particulates.
# [6] = test system: cancer patients; settings: variety of different formulations; cited from earlier work
# [7] = test system: MUC1/MT transgenic mice; assay: Glycopeptide vaccination of tumor bearing MUC1/MT transgenic mice, CTL activity by 51Cr release on EL-4; settings: MUC1/MT mice 14, 18, 24 weeks old; glycopeptide in IFA; EL-4 targets
# Experimental: In these experiments, MUC1/MT mice have been chosen according to age and tumor development.
# Seven days after priming, mice were sacrificed. Splenocytes from each experimental group were pooled and stimulated in vitro in the presence of the glycopeptide that was used as immunogen and irradiated B cell blasts as antigen presenting cells (APCs). After 5 days in culture, cells were collected, purified over Ficoll gradient, and T cell blasts were cultured in complete RPMI conditioned with supernatant from ConA-activated splenocytes as an IL2 source. Two days later (day 7 in culture) T cells were tested for CTL activity.
# Carbohydrate and peptide specificity were studied in a standard ^51Cr release assay using the lymphoma EL-4 (H-2^b) cell line as target at different effector: target ratios (E/T) in duplicate, with and without antigens. […] Net specific lysis has been calculated by subtracting the cytolytic response to EL-4 cells alone without antigens defined as background. Data were calculated as % cytotoxicity=[(sample-spontaneous release)/(maximum release-spontaneous release)]×100.
# Specificity of primary CTL cultures tested in a ^51Cr release assay is shown. […] EL-4 cells plated with T cell blasts in the absence of antigens have been assessed in duplicate at every E/T ratio to determine the extent of non-specific lysis. […]
compound,measurement,setting,value
CC(=O)N[C@H]1[C@@H](OC[C@H](NC(=O)[C@@H]2CCCN2C(=O)[C@H](CC(C)C)NC(=O)[C@@H](N)Cc2ccccc2)C(=O)N[C@@H](CC(=O)O)C(=O)N[C@@H](Cc2ccccc2)C(=O)N[C@@H](Cc2ccccc2)C(=O)N2CCC[C@H]2C(=O)N[C@@H](CO)C(=O)N[C@H](C(=O)O)C(C)C)O[C@H](CO)[C@H](O)[C@@H]1O,"number of specific CTL lines out of the 12, Donor 1",[1],5
same,"number of specific CTL lines out of the 12, Donor 2",[1],5
same,"number of specific CTL lines out of the 12, Donor 3",[1],1
same,"number of specific CTL lines out of the 12, Donor 4",[1],3
same,"number of specific CTL lines out of the 12, Donor 5",[1],4
same,"number of specific CTL lines out of the 12, Donor 6",[1],2
same,"number of specific CTL lines out of the 12, Donor 7",[1],4
same,Total number of specific CTL lines,[1],24
CC[C@H](C)[C@H](NC(=O)[C@H](C)N)C(=O)N[C@H](C(=O)N[C@@H](C)C(=O)N[C@@H](CO[C@H]1O[C@H](CO)[C@H](O)[C@H](O[C@@H]2O[C@H](CO)[C@H](O)[C@H](O)[C@H]2O)[C@H]1NC(C)=O)C(=O)N[C@@H](Cc1ccccc1)C(=O)N[C@@H](C)C(=O)N[C@@H](C)C(=O)N[C@@H](CC(C)C)C(=O)O)[C@@H](C)CC [AIIA(β-Gal-[1->3]-α-GalNAc-O-serine)FAAL] (H-AIIAS(X1)FAAL-OH; N-terminus and C-terminus assumed),"cytolytic response of TF-specific CTL clones to antigen (51Cr release, net lysis)",[2],high affinity/avidity
same,cytotoxic T cell response generated by immunization,[3],generate primary and memory TF-specific cytotoxic T cells in C57BL/6 mice in the absence of Th
CC(=O)N[C@H]1[C@@H](OC[C@H](NC(=O)[C@H](C)NC(=O)[C@H](CC(C)C)NC(=O)[C@H](C)N)C(=O)N[C@@H](C)C(=O)N[C@@H](C)C(=O)N[C@@H](C)C(=O)N[C@@H](C)C(=O)N[C@H](C(=O)O)C(C)C)O[C@H](CO)[C@H](O)[C@@H]1O [ALA(GALNAc-O-S)SAAAAV],A2 affinity (in words),[4],affinity slightly higher than the corresponding peptide but still efficiently
CC(=O)N[C@H]1[C@@H](OC[C@H](NC(=O)CNC(=O)[C@H](CC(C)C)NC(=O)[C@H](C)N)C(=O)N[C@H](C(=O)N[C@@H](C)C(=O)N2CCC[C@H]2C(=O)N2CCC[C@H]2C(=O)N[C@H](C(=O)O)C(C)C)[C@@H](C)O)O[C@H](CO)[C@H](O)[C@@H]1O [ALG(Tn-S)TAPPV],A2 affinity (in words),[4],very high affinity
CC(=O)N[C@H]1[C@@H](O[C@H](C)[C@H](NC(=O)[C@H](CC(=O)O)NC(=O)[C@@H]2CCCN2C(=O)[C@H](Cc2ccccc2)NC(=O)[C@H](CC(C)C)NC(=O)[C@@H](N)Cc2ccccc2)C(=O)N[C@@H](CCCNC(=N)N)C(=O)N[C@@H](C)C(=O)N[C@H](C(=O)O)C(C)C)O[C@H](CO)[C@H](O)[C@@H]1O [FLFPD(GalNAc-T)RAV] (H-FLFPDT(αGalNAc)RAV-OH; N-terminus and C-terminus assumed),solubility when diluted in Dimethylsulfoxide (DMSO),[5],very soluble
same,A2 affinity (in words),[4],very high affinity
CC(=O)N[C@H]1[C@@H](O[C@H](C)[C@H](NC(=O)[C@H](CC(=O)O)NC(=O)[C@@H]2CCCN2C(=O)[C@H](Cc2ccccc2)NC(=O)[C@H](CC(C)C)NC(=O)[C@@H](N)Cc2ccccc2)C(=O)N[C@@H](CCCNC(=N)N)C(=O)N[C@@H](Cc2ccc(O)cc2)C(=O)N[C@H](C(=O)O)C(C)C)O[C@H](CO)[C@H](O)[C@@H]1O [FLFPD(Tn-T)RYV] (H-FLFPDT(αGalNAc)RYV-OH; N-terminus and C-terminus assumed),solubility when diluted in Dimethylsulfoxide (DMSO),[5],very soluble
same,A2 affinity (in words),[4],very high affinity
CC(=O)N[C@H]1[C@@H](O[C@H](C)[C@H](NC(=O)[C@H](CC(=O)O)NC(=O)[C@@H]2CCCN2C(=O)[C@H](CC(C)C)NC(=O)[C@@H](N)Cc2ccccc2)C(=O)N[C@@H](CCCNC(=N)N)C(=O)N[C@@H](Cc2ccccc2)C(=O)N[C@@H](Cc2ccc(O)cc2)C(=O)N[C@H](C(=O)O)C(C)C)O[C@H](CO)[C@H](O)[C@@H]1O [FLPD(GalNAc-T)RFYV] (H-FLPDT(αGalNAc)RFYV-OH; N-terminus and C-terminus assumed),solubility when diluted in Dimethylsulfoxide (DMSO),[5],very soluble
same,A2 affinity (in words),[4],very high affinity
CC(=O)N[C@H]1[C@@H](OC[C@H](NC(=O)[C@H](CO)NC(=O)[C@H](Cc2ccc(O)cc2)NC(=O)[C@H](CC(C)C)NC(=O)CN)C(=O)N[C@H](C(=O)N[C@H](C(=O)N2CCC[C@H]2C(=O)N[C@H](C(=O)O)C(C)C)C(C)C)[C@@H](C)O)O[C@H](CO)[C@H](O)[C@@H]1O [GLYS(GalNAc-O-S)TVPV],"number of specific CTL lines out of the 12, Donor 1",[1],6
same,"number of specific CTL lines out of the 12, Donor 2",[1],2
same,"number of specific CTL lines out of the 12, Donor 3",[1],1
same,"number of specific CTL lines out of the 12, Donor 4",[1],1
same,"number of specific CTL lines out of the 12, Donor 5",[1],4
same,"number of specific CTL lines out of the 12, Donor 6",[1],4
same,"number of specific CTL lines out of the 12, Donor 7",[1],2
same,Total number of specific CTL lines,[1],20
CC(=O)N[C@H]1[C@@H](OC[C@H](NC(=O)[C@@H](NC(=O)[C@H](CC(C)C)NC(=O)[C@@H](N)[C@@H](C)O)[C@@H](C)O)C(=O)N[C@@H](CS)C(=O)N[C@@H](CC(N)=O)C(=O)N[C@H](C(=O)N[C@@H](CO)C(=O)N[C@H](C(=O)O)C(C)C)[C@@H](C)O)O[C@H](CO)[C@H](O)[C@@H]1O [TLT(GalNAc-O-S)CNTSV] (H-TLTS(αGalNAc)CNTSV-OH; N-terminus and C-terminus assumed),"number of specific CTL lines out of the 12, Donor 1",[1],7
same,"number of specific CTL lines out of the 12, Donor 2",[1],4
same,"number of specific CTL lines out of the 12, Donor 3",[1],0
same,"number of specific CTL lines out of the 12, Donor 4",[1],1
same,"number of specific CTL lines out of the 12, Donor 5",[1],5
same,"number of specific CTL lines out of the 12, Donor 6",[1],1
same,"number of specific CTL lines out of the 12, Donor 7",[1],5
same,Total number of specific CTL lines,[1],23
"CC(=O)N[C@@H]1[C@@H](O)[C@@H](O)[C@@H](CO)O[C@@H]1O [Tn, α-GalNAc]",safety and tolerability in clinical trials,[6],safe and well tolerated
AIIA(GalNAc-O-S)FAAL (AIIAS(GalNAc)FAAL),CTL activity after vaccination,[7],Strong CTL activity
FAPG (β-Gal-[1->3]-α-GalNAc-O-S)YPAL,"cytolytic response of TF-specific CTL clones to antigen (51Cr release, net lysis)",[2],good cytolytic activity
